Measured values from publication PMC11249646, “Small-Molecule Disruptors of the Interaction between Calcium- and Integrin-Binding Protein 1 and Integrin αIIbβ3 as Novel Antiplatelet Agents” (ACS Pharmacology & Translational Science, 2024).
Like-named read-outs stand apart in the source and are kept apart here.

Experiments:
[1] = molecular target: T1, CIB1 and αIIb interaction (CIB1-GST : F-αIIb peptide) (Homo sapiens, UniProt Q99828); experiment: FP assay, 1536-well qHTS format (primary and confirmatory screen); assay type: binding; settings: for Curve Class (confirmatory screen) / CONFIRMATORY SCREEN Curve Class: qHTS curve class
T1 construct: made in house; host or cells: BL-21 plus RIL cells (E. coli)
T1 sequence (Q99828 1-191): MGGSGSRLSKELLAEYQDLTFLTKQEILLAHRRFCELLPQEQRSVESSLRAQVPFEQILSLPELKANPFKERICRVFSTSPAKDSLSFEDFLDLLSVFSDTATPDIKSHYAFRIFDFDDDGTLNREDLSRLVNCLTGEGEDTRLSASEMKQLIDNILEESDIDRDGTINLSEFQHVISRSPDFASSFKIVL

[2] = molecular target: T2, GST-CIB1 : F-scrambled peptide (Homo sapiens, UniProt Q99828); experiment: FP scrambled-peptide counter screen, 1536-well format; assay type: binding; settings: for Curve Class (counterscreen) / COUNTERSCREEN Curve Class: qHTS curve class
T2 construct: made in house; host or cells: BL-21 plus RIL cells (E. coli)
T2 sequence (Q99828 1-191): T1 sequence (Q99828 1-191)

[3] = confirmatory screen, negative sign = inhibitory curve
[4] = confirmatory screen, read-out: IC50 [μM] (confirmatory screen)
[5] = qHTS FP screen hits, Table S2, negative = inhibition
[6] = qHTS FP screen hits, Table S2, read-out: IC50
[7] = counterscreen, negative sign = inhibitory curve
[8] = Table S3, confirmatory screen, a negative sign marks inhibitory curves
[9] = Table S3, confirmatory screen, negative = inhibition
[10] = qHTS primary screen hits, Table S2, negative = inhibition
[11] = qHTS primary screen hits, Table S2, negative sign = inhibitory curve, several classes where COUNT > 1
[12] = qHTS primary screen hits, Table S2, read-out: IC50
[13] = Table S3, counterscreen, a negative sign marks inhibitory curves
[14] = Table S3, counterscreen, negative = inhibition
[15] = Table S3, confirmatory screen, YES/NO call
[16] = Table S3, confirmatory screen, read-out: IC50 [μM] (confirmatory screen)
[17] = Table S3, counterscreen, read-out: IC50 [μM] (counterscreen)
[18] = qHTS FP screen hits, Table S2, one class per curve where COUNT > 1, negative sign = inhibitory curve
[19] = counterscreen, read-out: IC50 [μM] (counterscreen)
[20] = qHTS primary screen hits, Table S2, negative sign = inhibitory curve
[21] = Table S3, counterscreen, YES/NO call
[22] = scrambled-peptide counterscreen

Row | SMILES | Efficacy (%) (confirmatory screen) ([1]; confirmatory screen) | Confirm? (confirmatory screen) ([1]; confirmatory screen, YES/NO) | Curve Class (confirmatory screen) [1, 3] | Efficacy (%) [1, 5] | IC50 [1, 6] | Efficacy (%) (counterscreen) ([2]; counterscreen) | Curve Class (counterscreen) [2, 7] | Curve Class (confirmatory screen) [1, 8] | Efficacy (%) (confirmatory screen) [1, 9] | Efficacy (%) [1, 10] | Curve Class [1, 11] | IC50 [1, 12] | Curve Class (counterscreen) [2, 13] | Efficacy (%) (counterscreen) [2, 14] | IC50 [2, 17] | other results
1 | Cn1c(NC2=NC3(CCCC3)C3=C(CCCC3=O)N2)nc2ccccc21.O=C(O)C(F)(F)F [NCGC00188583-01] | -31% | YES | -2.4 | -27% | 7.1 µM | -13% | 4 |  |  |  |  |  |  |  |  | IC50 [1, 4]: 89.1 µM; Confirm? (counterscreen) ([2]; counterscreen, YES/NO): YES
2 | O=C(O)C(F)(F)F.O=C1Nc2ccccc2/C1=N/NC(=S)NCc1ccccc1 [NCGC00229543-01] |  |  |  |  |  |  |  | 4 | -33% | -24% | -1.4 | 7.9 µM | 4 | -27% |  | 
3 | Cc1ccc2c(c1)/C(=C\C(=O)c1cccs1)C(=O)N2.O=C(O)C(F)(F)F [NCGC00479180-01] |  |  |  |  |  |  |  | -1.2 | -57% | -36% | -1.4 | 15.8 µM | -2.4 | -64% | 11.2 µM | Confirm? (confirmatory screen) [1, 15]: YES; IC50 [1, 16]: 11.2 µM
4 | CCCCC(CC)CNC(=N)NC(=N)NCCCCCCNC(=N)NC(=N)NCC(CC)CCCC.Cl.Cl.Cl (centres unmarked) [NCGC00178352-06] | -86% | YES | -2.1 | -55% | 22.4 µM | 93% | 3 |  |  |  |  |  |  |  |  | IC50 [1, 4]: 28.2 µM; Curve Class [1, 18]: -1.2; Confirm? (counterscreen) ([2]; counterscreen, YES/NO): YES; IC50 [2, 19]: 100 µM
5 | O=C(O)C(F)(F)F.O=C1CC(c2ccccc2Cl)c2sc(N3CCOCC3)nc2N1 (centres unmarked) [NCGC00488256-02] |  |  |  |  |  |  |  | -2.4 | -49% | -72% | -2.2 | 79.4 µM | -2.2 | -77% | 31.6 µM | Confirm? (confirmatory screen) [1, 15]: YES; IC50 [1, 16]: 50.1 µM
6 | CC(O)C(=O)O.CCOc1ccc2nc3cc(N)ccc3c(N)c2c1.O [NCGC00096056-02] |  |  |  |  |  |  |  | -2.1 | -162% | -129% | -2.1 | 44.7 µM | -2.1 | -204% | 31.6 µM | Confirm? (confirmatory screen) [1, 15]: YES; IC50 [1, 16]: 25.1 µM
7 | Cn1ccc(=Nc2ccc(NC(=O)c3ccc(/N=c4\ccn(C)c5ccc([N+](=O)[O-])cc45)cc3[N+](=O)[O-])cc2)cc1.O=C(O)C(F)(F)F [NCGC00356066-02] | -82% | YES | -1.2 |  |  | -46% | -1.2 |  |  | -65% | -2.2 | 39.8 µM |  |  |  | IC50 [2, 19]: 12.6 µM
8 | O=C(O)C(F)(F)F.O=C1CCCC2=C1C(c1cccnc1Br)N=C(Nc1nc3ccccc3o1)N2 (centres unmarked) [NCGC00189281-01] |  |  |  |  |  |  |  |  |  | -26% |  | 25.1 µM |  |  |  | CONFIRMATORY SCREEN Efficacy (%) ([1]; confirmatory screen): -31%; CONFIRMATORY SCREEN Curve Class ([1]; confirmatory screen): 4; Curve Class [1, 20]: -2.4; COUNTERSCREEN Efficacy (%) ([2]; counterscreen): 0%; COUNTERSCREEN Curve Class ([2]; counterscreen): 4
9 | NC(=O)c1cccc(-c2cnc3c(O)ccc(C(=O)O)c3c2)c1.O=C(O)C(F)(F)F [NCGC00241055-01] |  |  |  |  |  |  |  | 4 | -31% | -35% |  | 31.6 µM | -2.4 | -42% | 35.5 µM | Curve Class [1, 20]: -2.4; Confirm? (counterscreen) [2, 21]: YES
10 | O=C(O)C(F)(F)F.O=C1CCCC2=C1C(c1ccn[nH]1)N=C(Nc1nc3ccccc3o1)N2 (centres unmarked) [NCGC00229725-01] |  |  |  |  |  |  |  | 4 | -29% | -32% |  | 25.1 µM | 4 | -32% |  | Curve Class [1, 20]: -2.2
11 | Cc1ccc(S(=O)(=O)Nc2ccc(Br)cc2C(=O)Nc2nc(-c3ccccc3)cs2)cc1.O=C(O)C(F)(F)F [NCGC00262989-01] |  |  |  |  |  |  |  | 2.4 | 47% | -26% | -2.4 | 20 µM |  | 243% | 35.5 µM | 
12 | Cc1ccsc1C1N=C(Nc2nc3ccccc3o2)NC2=C1C(=O)CCC2.O=C(O)C(F)(F)F (centres unmarked) [NCGC00189283-01] |  |  |  | -28% | 7.9 µM |  |  | 4 | -22% |  |  |  | -2.4 | -34% | 63.1 µM | Confirm? (counterscreen) [2, 21]: YES
13 | CN(C)[C@H]1CCN(c2cccc(Nc3nn4c(=O)c5ccccc5nc4s3)c2)C1.O=C(O)C(F)(F)F [NCGC00189222-02] |  |  |  |  |  |  |  |  |  | -39% |  | 32.8 µM |  |  |  | CONFIRMATORY SCREEN Confirm? ([1]; confirmatory screen, YES/NO call): YES; CONFIRMATORY SCREEN Curve Class [1, 3]: -2.4; CONFIRMATORY SCREEN Efficacy (%) ([1]; confirmatory screen, negative = inhibition): -54%; COUNTERSCREEN Efficacy (%) [2, 22]: -79%; COUNTERSCREEN Confirm? ([2]; scrambled-peptide counterscreen, YES/NO call): YES; COUNTERSCREEN Curve Class [2, 22]: -2.2; IC50 ([2]; scrambled-peptide counterscreen, read-out: COUNTERSCREEN IC50): 56.2 µM
14 | COc1nc2ccc(Br)cc2cc1[C@@H](c1ccccc1)[C@@](O)(CCN(C)C)c1cccc2ccccc12 [NCGC00348215-04] | -94% | YES | -2.2 | -64% | 50.1 µM | -83% | -2.2 |  |  |  |  |  |  |  |  | IC50 [1, 4]: 89.1 µM; Curve Class [1, 18]: -2.2; IC50 [2, 19]: 89.1 µM
15 | CC[C@@H](c1ccc(F)c(F)c1)n1c(C(=O)OC)c(-c2ccno2)[nH]c1=S [NCGC00387465-01] |  |  |  | -79% | 79.4 µM |  |  | 4 | -22% |  |  |  | 4 | 0% |  | Curve Class [1, 18]: -2.2
16 | NC(=O)c1ccc(Cc2c(-c3cccc(-c4ccccc4)c3)nn(-c3nc(C(=O)O)cs3)c2O)cc1.O=C(O)C(F)(F)F [NCGC00356638-01] | -125% | YES | -2.1 |  |  | -60% | -2.2 |  |  | -59% | -2.2 | 56.2 µM |  |  |  | IC50 [1, 4]: 70.8 µM; IC50 [2, 19]: 44.7 µM
